Species: Rattus norvegicus
Test: DrugMatrix - Regimen: Daily Repeat
Type: toxicity, organism-based, Sprague-Dawley
Set-up: regimen Daily Repeat, gender Male, age 6-8 weeks
Settings: in vivo, po, route oral GAVAGE, vehicle .5 % CMC; for BASOPHIL / EOSINOPHIL / ERYTHROCYTE COUNT / HEMATOCRIT / HEMOGLOBIN / LEUKOCYTE COUNT / LYMPHOCYTE / MEAN CORPUSCULAR HEMOGLOBIN / MEAN CORPUSCULAR HEMOGLOBIN CONCENTRATION / MEAN CORPUSCULAR VOLUME / MONOCYTE / NEUTROPHIL / PLATELET COUNT: tissue Blood; for ALANINE AMINOTRANSFERASE / ALBUMIN / ALKALINE PHOSPHATASE / ASPARTATE AMINOTRANSFERASE / BLOOD UREA NITROGEN / CHLORIDE / CHOLESTEROL / CREATINE PHOSPHOKINASE / CREATININE / GLUCOSE / PHOSPHORUS / POTASSIUM / SODIUM / TOTAL BILIRUBIN / TOTAL PROTEIN: tissue Plasma
[1] = 0 mg/kg, 72 h, dose level Control, time 3 day
[2] = 0 mg/kg, 120 h, dose level Control, time 5 day
[3] = 750 mg/kg, 72 h, dose level Low, time 3 day
[4] = 750 mg/kg, 120 h, dose level Low, time 5 day
[5] = 2000 mg/kg, 72 h, dose level High, time 3 day
[6] = 2000 mg/kg, 120 h, dose level High, time 5 day

With `NCC(=O)O` [GLYCINE] the BASOPHIL [1] was 0%, the EOSINOPHIL [1] was 0% and the “ERYTHROCYTE COUNT” value [1] was 6.34 x10E6/uL. For the same molecule, the HEMATOCRIT [1] was 37.62%, the HEMOGLOBIN [1] was 14.82 G/DL and the “LEUKOCYTE COUNT” value [1] was 11.18 x10E3/uL. The LYMPHOCYTE [1] was 87.5%, the “MEAN CORPUSCULAR HEMOGLOBIN” value [1] was 23.48 pg and the “MEAN CORPUSCULAR HEMOGLOBIN CONCENTRATION” value [1] was 39.5 G/DL. For the same molecule, the “MEAN CORPUSCULAR VOLUME” value [1] was 59.45 fL, the MONOCYTE [1] was 1.67% and the NEUTROPHIL [1] was 10.83%. For the same molecule, the “PLATELET COUNT” value [1] was 1074.83 x10E3/uL, the “ALANINE AMINOTRANSFERASE” value [1] was 36.5 u/L and the ALBUMIN [1] was 3.9 G/DL. For the same molecule, the “ALKALINE PHOSPHATASE” value [1] was 370.17 u/L, the “ASPARTATE AMINOTRANSFERASE” value [1] was 63.17 u/L and the “BLOOD UREA NITROGEN” value [1] was 16.83 mg/dL. The CHLORIDE [1] was 99.33 MEQ/L, the CHOLESTEROL [1] was 64.33 mg/dL and the “CREATINE PHOSPHOKINASE” value [1] was 127 u/L. It also gave a CREATININE [1] of 0.55 mg/dL, a GLUCOSE [1] of 173.5 mg/dL and a PHOSPHORUS [1] of 10.08 mg/dL. The POTASSIUM [1] was 6.23 MEQ/L, the SODIUM [1] was 143.5 MEQ/L and the “TOTAL BILIRUBIN” value [1] was 0.52 mg/dL. The “TOTAL PROTEIN” value [1] was 6.35 G/DL, the BASOPHIL [2] was 0% and the EOSINOPHIL [2] was 0.17%. For the same molecule, the “ERYTHROCYTE COUNT” value [2] was 6.12 x10E6/uL, the HEMATOCRIT [2] was 37.08% and the HEMOGLOBIN [2] was 14.82 G/DL. The “LEUKOCYTE COUNT” value [2] was 11.87 x10E3/uL, the LYMPHOCYTE [2] was 83.33% and the “MEAN CORPUSCULAR HEMOGLOBIN” value [2] was 24.25 pg. For the same molecule, the “MEAN CORPUSCULAR HEMOGLOBIN CONCENTRATION” value [2] was 39.97 G/DL, the “MEAN CORPUSCULAR VOLUME” value [2] was 60.65 fL and the MONOCYTE [2] was 1.5%. For the same molecule, the NEUTROPHIL [2] was 15%, the “PLATELET COUNT” value [2] was 1042.83 x10E3/uL and the “ALANINE AMINOTRANSFERASE” value [2] was 46 u/L. For the same molecule, the ALBUMIN [2] was 3.82 G/DL, the “ALKALINE PHOSPHATASE” value [2] was 369.5 u/L and the “ASPARTATE AMINOTRANSFERASE” value [2] was 65 u/L. For the same molecule, the “BLOOD UREA NITROGEN” value [2] was 16.33 mg/dL, the CHLORIDE [2] was 100.67 MEQ/L and the CHOLESTEROL [2] was 57.17 mg/dL. The “CREATINE PHOSPHOKINASE” value [2] was 130 u/L, the CREATININE [2] was 0.53 mg/dL and the GLUCOSE [2] was 163.33 mg/dL. The PHOSPHORUS [2] was 9.53 mg/dL, the POTASSIUM [2] was 6.27 MEQ/L and the SODIUM [2] was 144.83 MEQ/L. For the same molecule, the “TOTAL BILIRUBIN” value [2] was 0.55 mg/dL, the “TOTAL PROTEIN” value [2] was 6.32 G/DL and the BASOPHIL [3] was 0%. The EOSINOPHIL [3] was 0%, the “ERYTHROCYTE COUNT” value [3] was 6.2 x10E6/uL and the HEMATOCRIT [3] was 37.37%. The HEMOGLOBIN [3] was 14.17 G/DL, the “LEUKOCYTE COUNT” value [3] was 11.6 x10E3/uL and the LYMPHOCYTE [3] was 90%. The “MEAN CORPUSCULAR HEMOGLOBIN” value [3] was 22.83 pg, the “MEAN CORPUSCULAR HEMOGLOBIN CONCENTRATION” value [3] was 37.97 G/DL and the “MEAN CORPUSCULAR VOLUME” value [3] was 60.17 fL. The MONOCYTE [3] was 0%, the NEUTROPHIL [3] was 10% and the “PLATELET COUNT” value [3] was 1191.67 x10E3/uL. For the same molecule, the “ALANINE AMINOTRANSFERASE” value [3] was 28 u/L, the ALBUMIN [3] was 3.4 G/DL and the “ALKALINE PHOSPHATASE” value [3] was 270.33 u/L. For the same molecule, the “ASPARTATE AMINOTRANSFERASE” value [3] was 46.67 u/L, the “BLOOD UREA NITROGEN” value [3] was 9 mg/dL and the CHLORIDE [3] was 102.33 MEQ/L. For the same molecule, the CHOLESTEROL [3] was 55.33 mg/dL, the “CREATINE PHOSPHOKINASE” value [3] was 104.33 u/L and the CREATININE [3] was 0.4 mg/dL. For the same molecule, the GLUCOSE [3] was 165 mg/dL, the PHOSPHORUS [3] was 10.73 mg/dL and the POTASSIUM [3] was 6.07 MEQ/L. For the same molecule, the SODIUM [3] was 148 MEQ/L, the “TOTAL BILIRUBIN” value [3] was 0.17 mg/dL and the “TOTAL PROTEIN” value [3] was 5.43 G/DL. The BASOPHIL [4] was 0%, the EOSINOPHIL [4] was 0% and the “ERYTHROCYTE COUNT” value [4] was 6.26 x10E6/uL. The HEMATOCRIT [4] was 38.2%, the HEMOGLOBIN [4] was 15 G/DL and the “LEUKOCYTE COUNT” value [4] was 13 x10E3/uL. The LYMPHOCYTE [4] was 89.67%, the “MEAN CORPUSCULAR HEMOGLOBIN” value [4] was 23.97 pg and the “MEAN CORPUSCULAR HEMOGLOBIN CONCENTRATION” value [4] was 39.27 G/DL. The “MEAN CORPUSCULAR VOLUME” value [4] was 61.1 fL, the MONOCYTE [4] was 0.33% and the NEUTROPHIL [4] was 10%. For the same molecule, the “PLATELET COUNT” value [4] was 1041.67 x10E3/uL, the “ALANINE AMINOTRANSFERASE” value [4] was 32 u/L and the ALBUMIN [4] was 3.73 G/DL. The “ALKALINE PHOSPHATASE” value [4] was 311.33 u/L, the “ASPARTATE AMINOTRANSFERASE” value [4] was 55.33 u/L and the “BLOOD UREA NITROGEN” value [4] was 12.33 mg/dL. The CHLORIDE [4] was 99.33 MEQ/L, the CHOLESTEROL [4] was 59.67 mg/dL and the “CREATINE PHOSPHOKINASE” value [4] was 148 u/L. The CREATININE [4] was 0.57 mg/dL, the GLUCOSE [4] was 154 mg/dL and the PHOSPHORUS [4] was 11.67 mg/dL. The POTASSIUM [4] was 5.97 MEQ/L, the SODIUM [4] was 144.33 MEQ/L and the “TOTAL BILIRUBIN” value [4] was 0.33 mg/dL. The “TOTAL PROTEIN” value [4] was 6.07 G/DL, the BASOPHIL [5] was 0% and the EOSINOPHIL [5] was 0%. For the same molecule, the “ERYTHROCYTE COUNT” value [5] was 6.16 x10E6/uL, the HEMATOCRIT [5] was 36.47% and the HEMOGLOBIN [5] was 14 G/DL. The “LEUKOCYTE COUNT” value [5] was 12.17 x10E3/uL, the LYMPHOCYTE [5] was 89.67% and the “MEAN CORPUSCULAR HEMOGLOBIN” value [5] was 22.77 pg. For the same molecule, the “MEAN CORPUSCULAR HEMOGLOBIN CONCENTRATION” value [5] was 38.4 G/DL, the “MEAN CORPUSCULAR VOLUME” value [5] was 59.23 fL and the MONOCYTE [5] was 1.33%. The NEUTROPHIL [5] was 9%, the “PLATELET COUNT” value [5] was 1124.67 x10E3/uL and the “ALANINE AMINOTRANSFERASE” value [5] was 31.33 u/L. For the same molecule, the ALBUMIN [5] was 3.53 G/DL, the “ALKALINE PHOSPHATASE” value [5] was 262.33 u/L and the “ASPARTATE AMINOTRANSFERASE” value [5] was 51.67 u/L. For the same molecule, the “BLOOD UREA NITROGEN” value [5] was 12 mg/dL, the CHLORIDE [5] was 100.33 MEQ/L and the CHOLESTEROL [5] was 57.33 mg/dL. The “CREATINE PHOSPHOKINASE” value [5] was 113.33 u/L, the CREATININE [5] was 0.37 mg/dL and the GLUCOSE [5] was 157.67 mg/dL. The PHOSPHORUS [5] was 12.17 mg/dL, the POTASSIUM [5] was 6.6 MEQ/L and the SODIUM [5] was 145.67 MEQ/L. For the same molecule, the “TOTAL BILIRUBIN” value [5] was 0.2 mg/dL, the “TOTAL PROTEIN” value [5] was 5.57 G/DL and the BASOPHIL [6] was 0%. The EOSINOPHIL [6] was 0.33%, the “ERYTHROCYTE COUNT” value [6] was 6.21 x10E6/uL and the HEMATOCRIT [6] was 36.87%. The HEMOGLOBIN [6] was 14.97 G/DL, the “LEUKOCYTE COUNT” value [6] was 15.13 x10E3/uL and the LYMPHOCYTE [6] was 88.67%. The “MEAN CORPUSCULAR HEMOGLOBIN” value [6] was 24.1 pg, the “MEAN CORPUSCULAR HEMOGLOBIN CONCENTRATION” value [6] was 40.6 G/DL and the “MEAN CORPUSCULAR VOLUME” value [6] was 59.4 fL. For the same molecule, the MONOCYTE [6] was 1.33%, the NEUTROPHIL [6] was 9.67% and the “PLATELET COUNT” value [6] was 1238.67 x10E3/uL. For the same molecule, the “ALANINE AMINOTRANSFERASE” value [6] was 33.67 u/L, the ALBUMIN [6] was 3.63 G/DL and the “ALKALINE PHOSPHATASE” value [6] was 237 u/L. For the same molecule, the “ASPARTATE AMINOTRANSFERASE” value [6] was 55.67 u/L, the “BLOOD UREA NITROGEN” value [6] was 12.33 mg/dL and the CHLORIDE [6] was 100.67 MEQ/L. The CHOLESTEROL [6] was 62 mg/dL, the “CREATINE PHOSPHOKINASE” value [6] was 118.67 u/L and the CREATININE [6] was 0.5 mg/dL. The GLUCOSE [6] was 159.67 mg/dL, the PHOSPHORUS [6] was 11.77 mg/dL and the POTASSIUM [6] was 6.63 MEQ/L. The SODIUM [6] was 146.67 MEQ/L, the “TOTAL BILIRUBIN” value [6] was 0.27 mg/dL and the “TOTAL PROTEIN” value [6] was 5.93 G/DL.

From ChEMBL document CHEMBL3885881, “DrugMatrix”
